Counter-ions that a name gives are not always drawn.
Legend:
Format in all cases: biochemical
MAO-B = target: T1, MAO-B (Homo sapiens, UniProt P27338); experiment: Measurement of MAO-B inhibitory activity (MAO-Glo Assay)
T1 construct: purchased Sigma-Aldrich Co. LLC
T1 sequence (P27338 1-520): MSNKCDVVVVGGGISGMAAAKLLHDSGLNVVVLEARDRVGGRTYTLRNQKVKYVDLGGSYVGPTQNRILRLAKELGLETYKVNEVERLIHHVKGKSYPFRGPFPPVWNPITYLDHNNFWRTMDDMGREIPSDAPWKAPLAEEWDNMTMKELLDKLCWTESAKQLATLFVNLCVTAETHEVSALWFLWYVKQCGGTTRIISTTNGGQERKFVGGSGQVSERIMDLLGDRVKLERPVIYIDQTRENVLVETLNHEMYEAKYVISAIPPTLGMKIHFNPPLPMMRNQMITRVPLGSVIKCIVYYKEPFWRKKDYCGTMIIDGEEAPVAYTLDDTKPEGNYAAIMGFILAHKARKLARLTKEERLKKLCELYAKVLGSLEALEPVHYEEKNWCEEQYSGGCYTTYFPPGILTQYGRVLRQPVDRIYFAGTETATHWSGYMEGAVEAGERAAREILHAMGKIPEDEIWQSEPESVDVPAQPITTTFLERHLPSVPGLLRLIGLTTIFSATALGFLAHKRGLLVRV
Method: (2) Measurement of MAO-B Inhibitory Activity
The MAO-B inhibitory activity evaluation described below followed the protocol of MAO-Glo (registered trademark) Assay of Promega KK.
(§1) A test compound dissolved in 4% DMSO was added by 12.5 μL to 25 μL reaction solution (100 mM HEPES (pH 7.5), 5% glycerol, 10% DMSO) containing 400 ng of MAO-B enzyme (Sigma-Aldrich Co. LLC.), and the mixture was reacted at room temperature for 10 min. MAO substrate (Promega KK) (16 μM) was added by 12.5 μL to start the reaction. After reaction at room temperature for 60 min, Luciferine detection reagent (Promega KK) (50 μL) was added to terminate the reaction. After reaction at room temperature for 20 min with stirring, the luminescence was measured by Envision (PerkinElmer). The MAO-B inhibitory rate (%) of the test compound was calculated by the following formula. inhibitory rate (%)=(1−(test compound count−blank)÷(control−blank)×100
The count of the MAO-B enzyme reaction mixture under compound non-addition conditions is indicated as control, and the count under compound non-addition and MAO-B enzyme non-addition conditions is indicated as blank.

MAO-A = target: T2, MAO-A (Homo sapiens, UniProt P21397); experiment: Measurement of MAO-A inhibitory activity (MAO-Glo Assay)
T2 construct: purchased Sigma-Aldrich Co. LLC
T2 sequence (P21397 1-527): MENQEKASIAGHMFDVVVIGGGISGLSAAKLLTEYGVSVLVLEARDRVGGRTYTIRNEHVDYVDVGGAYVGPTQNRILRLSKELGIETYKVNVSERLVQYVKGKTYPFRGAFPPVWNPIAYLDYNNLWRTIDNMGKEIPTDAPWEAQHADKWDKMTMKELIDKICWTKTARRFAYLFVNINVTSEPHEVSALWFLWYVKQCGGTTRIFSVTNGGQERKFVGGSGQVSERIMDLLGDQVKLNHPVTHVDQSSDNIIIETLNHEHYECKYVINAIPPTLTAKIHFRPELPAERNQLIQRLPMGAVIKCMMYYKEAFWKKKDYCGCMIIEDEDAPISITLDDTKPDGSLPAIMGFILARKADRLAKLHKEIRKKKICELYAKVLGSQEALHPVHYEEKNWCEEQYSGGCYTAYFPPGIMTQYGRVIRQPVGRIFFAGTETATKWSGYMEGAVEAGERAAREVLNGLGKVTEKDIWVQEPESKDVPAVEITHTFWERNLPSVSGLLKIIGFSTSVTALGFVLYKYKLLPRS
Method: (1) Measurement of MAO-A Inhibitory Activity
The MAO-A inhibitory activity evaluation described below followed the protocol of MAO-Glo (registered trademark) Assay of Promega KK.
as §1, with “glycerol)” for “glycerol, 10% DMSO)”, “MAO-A” for “MAO-B”, “(160” for “(16”
The count of the MAO-A enzyme reaction mixture under compound non-addition conditions is indicated as control, and the count under compound non-addition and MAO-A enzyme non-addition conditions is indicated as blank.

human LSD1(171-852) = target: T3, human LSD1(171-852) (Homo sapiens, UniProt O60341); experiment: Measurement of LSD1 inhibitory activity (time-resolved fluorescence, biotin-histone H3 mono methylated K4 peptide); conditions: read-out: LSD1 IC50 value
T3 construct: to give hLSD1(171-852) purified product; made in house; host or cells: Escherichia coli C43(DE3) pLysS
Method: When the turbidity reached 600 Klett units, the culture temperature was changed to 16° C., IPTG having a final concentration of 0.5 mM was added to induce expression, and the cells were cultured further for 21 hr. The culture medium was centrifuged at 9,000 g for 10 min, and Escherichia coli pellets were recovered.
Escherichia coli pellets in 9 L of the culture medium were suspended in 1340 mL of an extraction buffer (PBS, 5% (V/V) Glycerol), and 6700 units of Benzonase (Merck) were added. Using Branson ultrasonic disintegrator, the suspension was disrupted by ultrasonication for 3 min, and centrifuged at 33,000 g for 20 min, and the supernatant was recovered.
(5) Measurement of LSD1 Inhibitory Activity
After reaction at room temperature for 20 min, 1 mM 2-PCPA solution (5 μL) was added to terminate the reaction. A detection solution (800 mM potassium fluoride, 0.1% BSA) containing europium-labeled antihistone H3 antibody (Wako Pure Chemical Industries, Ltd.) and Streptavidin-XL665 (Cisbio) was further added by 5 μL, and the mixture was left standing for 60 min. A time-resolved fluorescence (excitation 320 nm, emission 615 nm, 665 nm) was measured by Envision (PerkinElmer). The LSD1 inhibitory rate (%) of the test compound was calculated by the following formula. inhibitory rate (%)=(1−(test compound count−blank)÷(control−blank)×100
The count of the LSD1 enzyme reaction mixture under compound non-addition conditions is indicated as control, and the count under compound non-addition and LSD1 enzyme non-addition conditions is indicated as blank.

Row | Structure (SMILES) | IC50 (MAO-B) | IC50 (MAO-A) | IC50 (human LSD1(171-852))
1 | CC(N[C@@H]1C[C@H]1c1ccc(NC(=O)c2ccc(-c3ccccc3)cc2)cc1)c1ccccc1 (relative stereo) [Example 47, N-(4-{trans-2-[(1-phenylethyl)amino]-cyclopropyl}phenyl)-biphenyl-4-carboxamide] | 1.7 µM | 1.8 µM | 0.19 µM
2 | NS(=O)(=O)c1ccc(C(=O)Nc2ccc([C@@H]3C[C@H]3NCC3CC3)cc2)cc1 (relative stereo) [Example 88, N-(4-{trans-2-[(cyclopropylmethyl)amino]cyclopropyl}-phenyl)-4-sulfamoylbenzamide] | > 10 µM | > 10 µM | < 0.1 µM
3 | COc1ccc(CN[C@@H]2C[C@H]2c2ccc(NC(=O)c3cccc(Br)c3)cc2)cc1OC (relative stereo) [Example 6, 3-bromo-N-(4-{trans-2-[(3,4-dimethoxybenzyl)amino]cyclopropyl}phenyl)benzamide] | > 10 µM | > 10 µM | < 0.1 µM
4 | Cc1cc(NC(=O)c2ccccc2)ccc1[C@@H]1C[C@H]1NCC1CC1 (relative stereo) [Example 82, N-(4-{trans-2-[(cyclopropylmethyl)amino]cyclopropyl}-3-methylphenyl)benzamide hydrochloride] | > 10 µM | > 10 µM | < 0.1 µM
5 | CC(C)(C)n1cc(C(=O)Nc2ccc([C@@H]3C[C@H]3NCC3CC3)cc2)cn1 (relative stereo) [Example 164, 1-tert-butyl-N-(4-{trans-2-[(cyclopropylmethyl)amino]cyclopropyl}phenyl)-1H-pyrazole-4-carboxamide hydrochloride] | > 10 µM | > 10 µM | 0.2 µM
6 | CN1CCC(N[C@@H]2C[C@H]2c2ccc(NC(=O)c3cccc(C(F)(F)F)c3)cc2)CC1 (single isomer, unassigned) [Example 153, N-(4-{(1S,2R) or (1R,2S)-2-[(1-methylpiperidin-4-yl)amino]cyclopropyl}phenyl)-3-(trifluoromethyl)benzamide dihydrochloride] | > 10 µM | > 10 µM | < 0.1 µM
7 | Cc1oc(-c2ccccc2)nc1C(=O)Nc1ccc([C@@H]2C[C@H]2NCC2CC2)cc1 (relative stereo) [Example 122, N-(4-{trans-2-[(cyclopropylmethyl)amino]cyclopropyl}-phenyl)-5-methyl-2-phenyl-1,3-oxazole-4-carboxamide] | > 10 µM | > 10 µM | < 0.1 µM
8 | CN(C)c1ccc(C(=O)Nc2ccc([C@@H]3C[C@H]3NCC3CC3)cc2)cc1 (relative stereo) [Example 84, N-(4-{trans-2-[(cyclopropylmethyl)amino]cyclopropyl}-phenyl)-4-(dimethylamino)-benzamide] | > 10 µM | > 10 µM | < 0.1 µM
9 | O=C(Nc1ccc([C@@H]2C[C@H]2NCc2ccccc2F)cc1)c1ccccc1 (relative stereo) [Example 15, N-(4-{trans-2-[(2-fluoro-benzyl)amino]-cyclopropyl}-phenyl)benzamide] | > 10 µM | 6 µM | < 0.1 µM
10 | CC(=O)N1CCCc2ccc(C(=O)Nc3ccc([C@@H]4C[C@H]4NCC4CC4)cc3)cc2C1 (relative stereo) [Example 134, 2-acetyl-N-(4-{trans-2-[(cyclopropyl-methyl)amino]-cyclopropyl}-phenyl)-2,3,4,5-tetrahydro-1H-2-benzazepine-8-carboxamide] | > 10 µM | > 10 µM | < 0.1 µM
11 | O=C(Nc1ccc([C@@H]2C[C@H]2NCC2CC2)cc1)c1cnc(-c2ccccc2)o1 (relative stereo) [Example 104, N-(4-{trans-2-[(cyclopropylmethyl)-amino]cyclopropyl}-phenyl)-2-phenyl-1,3-oxazole-5-carboxamide] | > 10 µM | > 10 µM | < 0.1 µM
12 | O=C(Nc1ccc([C@@H]2C[C@H]2NCC2CC2)cc1)c1ccc2cc[nH]c2c1 (relative stereo) [Example 115, N-(4-{trans-2-[(cyclopropylmethyl)amino]cyclopropyl}-phenyl)-1H-indole-6-carboxamide] | > 10 µM | > 10 µM | < 0.1 µM
13 | CC(C)(C)c1cccc(C(=O)Nc2ccc([C@@H]3C[C@H]3NCc3ccccc3)cc2)c1 (relative stereo) [Example 9, N-{4-[trans-2-(benzylamino)cyclopropyl]phenyl}-3-tert-butylbenzamide] | > 10 µM | > 10 µM | 0.28 µM
14 | O=C(Nc1ccc([C@@H]2C[C@H]2NC2CCc3ccccc32)cc1)c1ccccc1 (relative stereo) [Example 20, N-{4-[trans-2-(2,3-dihydro-1H-inden-1-ylamino)cyclo-propyl]phenyl}-benzamide] | > 10 µM | > 10 µM | < 0.1 µM
15 | O=C(Nc1ccc([C@@H]2C[C@H]2NC2CCNC(c3ccccc3)C2)cc1)c1cccc(C(F)(F)F)c1 (relative stereo) [Example 77, N-(4-{trans-2-[(2-phenylpiperidin-4-yl)amino]cyclopropyl}phenyl)-3-(trifluoromethyl)benzamide dihydrochloride] | > 10 µM | 9.9 µM | < 0.1 µM
16 | O=C(Nc1ccc([C@@H]2C[C@H]2NC2CCCCCCC2)cc1)c1ccccc1 (relative stereo) [Example 24, N-{4-[trans-2-(cyclooctyl-amino)cyclo-propyl]phenyl}-benzamide] | > 10 µM | > 10 µM | < 0.1 µM
17 | CCCCCCCCCCCCN[C@@H]1C[C@H]1c1ccc(NC(=O)c2ccccc2)cc1 (relative stereo) [Example 22, N-{4-[trans-2-(dodecylamino)-cyclopropyl]-phenyl}benzamide] | 2.6 µM | 3.6 µM | 0.41 µM

From patent publication US9682925B2, “Cyclopropaneamine compound” (TAKEDA PHARMACEUTICAL COMPANY LIMITED, priority 2011, dated 2017)
